Assay [1] deals with T1, human recombinant dopamine D2L receptor (Homo sapiens, UniProt P14416).
T1 construct: expressed in transfected cells; host or cells: CHO cells
The assay can be described thus: Dopamine D2L radioligand binding ([3H]Spiperone). Conditions: read-out: Dopamine (1 μM) D2L, inhibition of ligand binding. How it is done:
To evaluate in radioligand binding assays the activity of compounds of the invention, human recombinant dopamine D2L receptor expressed in Chinese hamster ovary (CHO) cells (Grandy, D. K. et al. Proc. Natl. Acad. Sci. USA. 86:9762, 1989; Hayes, G. et al., Mol. Endocrinol. 6:920, 1992) in a modified Tris-HCl buffer (50 mM Tris-HCl, pH 7.4, 1.4 mM Ascorbic Acid, 0.001% BSA, 150 mM NaCl) was used. Compounds of the invention were incubated with 0.16 nM [^3H]Spiperone for 120 minutes at 25° C. Non-specific binding was estimated in the presence of 10 μM Haloperidol. Receptor proteins were filtered and washed, the filters were then counted to determine [^3H]Spiperone specifically bound. Compounds were screened at 1 μM or lower, using 1% DMSO as vehicle. Biochemical assay results are presented as the percent inhibition of specific binding in Table 3.

The target in assay [2] is T2, human recombinant serotonin (5-Hydroxytryptamine) 5-HT6 receptor (Homo sapiens, UniProt P50406).
T2 construct: expressed in transfected cells; host or cells: human HeLa cells
T2 sequence (P50406 whole entry): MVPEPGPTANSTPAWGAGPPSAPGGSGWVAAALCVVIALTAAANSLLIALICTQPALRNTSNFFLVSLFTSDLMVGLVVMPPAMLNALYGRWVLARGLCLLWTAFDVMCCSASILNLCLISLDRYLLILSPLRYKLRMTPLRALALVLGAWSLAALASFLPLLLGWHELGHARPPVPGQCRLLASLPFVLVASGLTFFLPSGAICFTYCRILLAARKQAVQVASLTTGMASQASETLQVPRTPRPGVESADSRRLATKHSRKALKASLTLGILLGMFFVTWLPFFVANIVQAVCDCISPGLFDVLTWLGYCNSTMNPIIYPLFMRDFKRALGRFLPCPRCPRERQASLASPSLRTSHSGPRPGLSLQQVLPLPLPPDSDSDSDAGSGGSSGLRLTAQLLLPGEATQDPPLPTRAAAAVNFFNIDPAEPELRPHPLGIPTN
The assay can be described thus: Serotonin 5-HT6 radioligand binding ([3H]LSD). Conditions: for inhibition at 1 µM: read-out: Serotonin 5-HT6, inhibition of ligand binding (1 μM). How it is done:
To evaluate in radioligand binding assays the activity of compounds of the invention, human recombinant serotonin (5-Hydroxytryptamine) 5-HT6 receptor expressed in human HeLa cells (Monsma, F. J. Jr. et al., Mol. Pharmacol. 43:320, 1993) in a modified Tris-HCl buffer (50 mM Tris-HCl, pH 7.4, 150 mM NaCl, 2 mM Ascorbic Acid, 0.001% BSA) was used. Compounds of the invention were incubated with 1.5 nM [3H]Lysergic acid diethylamide (LSD) for 120 minutes at 37° C. Non-specific binding was estimated in the presence of 5 μM Serotonin (5-HT). Receptor proteins were filtered and washed, the filters were then counted to determine [3H]LSD specifically bound. Compounds were screened at 1 μM or lower, using 1% DMSO as vehicle. Biochemical assay results are presented as the percent inhibition of specific binding in Table 4.

For assay [3], the target named is T3, human recombinant adrenergic α2B receptor (Homo sapiens, UniProt P18089).
T3 construct: expressed in transfected cells; host or cells: CHO-K1 cells
T3 sequence (P18089 1-450): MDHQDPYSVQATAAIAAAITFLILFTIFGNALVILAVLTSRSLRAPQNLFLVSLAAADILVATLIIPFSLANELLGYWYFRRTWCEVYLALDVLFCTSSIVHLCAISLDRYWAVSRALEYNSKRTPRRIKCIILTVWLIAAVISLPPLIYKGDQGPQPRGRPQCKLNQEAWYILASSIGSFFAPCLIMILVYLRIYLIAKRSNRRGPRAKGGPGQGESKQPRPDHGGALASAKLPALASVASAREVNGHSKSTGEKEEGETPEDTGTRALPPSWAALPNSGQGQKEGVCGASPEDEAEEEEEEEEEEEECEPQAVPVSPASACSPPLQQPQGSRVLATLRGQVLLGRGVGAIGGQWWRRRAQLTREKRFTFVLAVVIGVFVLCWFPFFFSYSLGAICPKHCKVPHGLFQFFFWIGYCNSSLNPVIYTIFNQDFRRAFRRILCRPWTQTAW
The assay can be described thus: Adrenergic α2B radioligand binding ([3H]Rauwolscine). Particulars: 1 μM; for inhibition at 1 µM: read-out: Adrenergic α2B, inhibition of ligand binding (1 μM). How it is done:
To evaluate in radioligand binding assays the activity of compounds of the invention, human recombinant adrenergic α2B receptor expressed in Chinese hamster ovary (CHO-K1) cells (Uhlen S et al. Eur J. Pharmacol. 343(1):93, 1998) in a modified Tris-HCl buffer (50 mM Tris-HCl, pH 7.4, 12.5 mM MgCl2, 1 mM EDTA, 0.2% BSA) was used. Compounds of the invention were incubated with 2.5 nM [^3H]Rauwolscine for 60 minutes at 25° C. Non-specific binding was estimated in the presence of 10 μM Prozosin. Receptor proteins were filtered and washed, the filters were then counted to determine [^3H]Rauwolscine specifically bound. Compounds were screened at 1 μM or lower, using 1% DMSO as vehicle. Biochemical assay results are presented as the percent inhibition of specific binding in Table 3.

The target in assay [4] is T4, human recombinant adrenergic α1D receptor (Homo sapiens, UniProt P25100).
T4 construct: expressed in transfected cells; host or cells: HEK-293 cells
T4 sequence (P25100 1-572): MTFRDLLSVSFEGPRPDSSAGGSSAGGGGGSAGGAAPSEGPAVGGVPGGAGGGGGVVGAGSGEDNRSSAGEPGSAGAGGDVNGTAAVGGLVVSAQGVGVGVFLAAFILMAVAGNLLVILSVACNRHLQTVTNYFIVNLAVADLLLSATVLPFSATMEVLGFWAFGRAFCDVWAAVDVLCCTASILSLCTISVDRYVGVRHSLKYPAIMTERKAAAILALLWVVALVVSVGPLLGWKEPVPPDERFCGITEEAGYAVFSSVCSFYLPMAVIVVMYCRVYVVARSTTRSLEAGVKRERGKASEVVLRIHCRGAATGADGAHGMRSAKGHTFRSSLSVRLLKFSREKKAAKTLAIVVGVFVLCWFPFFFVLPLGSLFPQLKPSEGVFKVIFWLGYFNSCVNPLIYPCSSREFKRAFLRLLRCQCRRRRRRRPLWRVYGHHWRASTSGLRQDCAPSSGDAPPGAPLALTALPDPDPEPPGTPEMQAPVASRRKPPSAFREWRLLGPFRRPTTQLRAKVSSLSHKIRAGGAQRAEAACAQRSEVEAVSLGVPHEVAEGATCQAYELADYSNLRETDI
The assay can be described thus: Adrenergic α1D radioligand binding ([3H]Prozosin). Conditions: 1 μM; for inhibition at 1 µM: read-out: Adrenergic α1D, inhibition of ligand binding (1 μM). The method, then:
To evaluate in radioligand binding assays the activity of compounds of the invention, human recombinant adrenergic α1D receptor expressed in human embryonic kidney (HEK-293) cells (Kenny, B. A. et al. Br. J. Pharmacol. 115(6):981, 1995) in a 50 mM Tris-HCl buffer, pH 7.4, was used. Compounds of invention were incubated with 0.6 nM [^3H]Prozosin for 60 minutes at 25° C. Non-specific binding was estimated in the presence of 10 μM phentolamine. Receptor proteins were filtered and washed, the filters were then counted to determine [^3H]Prozosin specifically bound. Compounds were screened at 1 μM or lower, using 1% DMSO as vehicle. Biochemical assay results are presented as the percent inhibition of specific binding in Table 3.

Structures are written as SMILES. “And” between values parts separate entries of the source, which are not always exact repeats. Equal entries are not always repeated.

T1 sequence (P14416 whole entry): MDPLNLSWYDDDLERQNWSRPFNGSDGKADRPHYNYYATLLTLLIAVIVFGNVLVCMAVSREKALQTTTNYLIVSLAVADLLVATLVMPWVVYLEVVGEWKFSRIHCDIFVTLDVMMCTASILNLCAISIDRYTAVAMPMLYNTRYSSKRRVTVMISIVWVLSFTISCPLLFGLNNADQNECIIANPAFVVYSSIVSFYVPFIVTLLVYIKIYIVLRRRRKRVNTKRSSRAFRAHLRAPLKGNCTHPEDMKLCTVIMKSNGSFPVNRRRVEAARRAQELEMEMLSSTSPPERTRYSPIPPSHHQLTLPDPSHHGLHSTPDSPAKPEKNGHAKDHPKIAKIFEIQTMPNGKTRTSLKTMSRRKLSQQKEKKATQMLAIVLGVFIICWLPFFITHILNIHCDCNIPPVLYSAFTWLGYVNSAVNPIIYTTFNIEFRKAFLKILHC

Take `Cc1ccc2c(c1)c1c(n2CC(C)(O)c2ccc(Cl)cc2)CC2CCC1N2C` (stereo not shown) [Compound 54]: the inhibition at 1 µM in assay [1] worked out at 14%; in assay [2], 26%; in assay [3], 94%; in assay [4], 25%.
The corresponding values for `CN1C2CCC1c1c(n(CC(=O)N3CCOCC3)c3ccc(Cl)cc13)C2` (stereo not shown) [Compound 59, 2-(2-chloro-11-methyl-5,6,7,8,9,10-Hexahydro-7,10-iminocyclohept[b]indol-5-yl)-1-morpholinoethanone] are 6%, 0%, 20% and 2%.
For `CN1C2CCC1c1c(n(CC(=O)N3CCCC3)c3ccc(Cl)cc13)C2` (stereo not shown) [Compound 60], the inhibition at 1 µM was 0% in assay [1], 9% in assay [2], 5% in assay [3] and 1% in assay [4].
Consider `Cc1ccc(CCn2c3c(c4cc(Cl)ccc42)C2CCC(C3)N2C)cc1` (stereo not shown) [Compound 61], for which the inhibition at 1 µM came out at 44% in assay [1], 41% in assay [2], 96% in assay [3] and 80% in assay [4].
As to `Cc1ccc2c(c1)c1c(n2CCc2ccc(F)cc2)CC2CCC1N2C` (stereo not shown) [Compound 62], the inhibition at 1 µM in assay [1] came to 41%; in assay [2] it was 71%; in assay [3], 104%; in assay [4] it was 83%.
The corresponding values for `CCOC(=O)CCn1c2c(c3cc(Cl)ccc31)C1CCC(C2)N1C` (stereo not shown) [Compound 70, ethyl 3-(2-chloro-11-methyl-5,6,7,8,9,10-hexahydro-7,10-iminocyclohept[b]indol-5-yl)propanoate] are -3%, 3%, 51% and 26%.
Consider `Cc1ccc2c(c1)c1c(n2CCc2ccc(C(F)(F)F)nc2)CC2CCC1N2C` (stereo not shown) [Compound 71], for which the inhibition at 1 µM is -2% in assay [1], 99% in assay [3] and 62% in assay [4]. Further, the “Serotonin 5-HT6, inhibition of ligand binding (1 μM)” value in assay [2] (1 µM) was 8.0/ % and 2.0%. The “Adrenergic α2B, inhibition of ligand binding (1 μM)” value in assay [3] came out at 98.0%. Besides, the “Adrenergic α1D, inhibition of ligand binding (1 μM)” value in assay [4] is on record as 63.0%.
On to `CN1C2CCC1c1c(n(CCC(=O)O)c3ccc(Cl)cc13)C2` (stereo not shown) [Compound 72], for which the inhibition at 1 µM is 3% in assay [1], -1% in assay [2], -8% in assay [3] and -9% in assay [4].
Take `CN1C2CCC1c1c(n(CCC(N)=O)c3ccc(Cl)cc13)C2` (stereo not shown) [Compound 73]: the inhibition at 1 µM in assay [1] was -4%; in assay [2], -4%; in assay [3], 73%; in assay [4], 19%.
`CN1C2CCC1c1c(n(CCc3ccc(C(F)(F)F)nc3)c3cc(F)c(Cl)cc13)C2` (stereo not shown) [Compound 77]: the inhibition at 1 µM in assay [1] came to 4%; in assay [2] it was 21%; in assay [3] it was 75%; in assay [4] it was 37%.
For `Cc1ccc(CCn2c3c(c4cc(Cl)ccc42)C2CCC(C3)N2C)cn1` (stereo not shown) [Compound 79], in that order: 9%, 10%, 87% and 72%.
`CN1C2CCC1c1c(n(CCc3cccnc3)c3ccc(Cl)cc13)C2` (stereo not shown) [Compound 80]: the inhibition at 1 µM in assay [1] is -3%; in assay [2] it was 6%; in assay [3], 95%; in assay [4], 54%.
For `Cc1ccc2c(c1)c1c(n2CCc2cnc(C)nc2)CC2CCC1N2C` (stereo not shown) [Compound 81], the inhibition at 1 µM in assay [1] came to 9%; in assay [2], 12%; in assay [3], 40%; in assay [4], 42%.
With `Cc1ncc(CCn2c3c(c4cc(Cl)ccc42)C2CCC(C3)N2C)cn1` (stereo not shown) [Compound 82], the inhibition at 1 µM in assay [1] worked out at 2%; in assay [2] it was 13%; in assay [3] it was 47%; in assay [4] it was 40%.
On to `COc1ccc(CCn2c3c(c4cc(C)ccc42)C2CCC(C3)N2C)cc1` (stereo not shown) [Compound 83], for which the inhibition at 1 µM came out at 12% in assay [1], 23% in assay [2], 94% in assay [3] and 80% in assay [4].
`COc1ccc(CCn2c3c(c4cc(Cl)ccc42)C2CCC(C3)N2C)cc1` (stereo not shown) [Compound 84]: the inhibition at 1 µM was -6% in assay [1], 13% in assay [2], 98% in assay [3] and 19% in assay [4].
As for `Cc1ccc2c(c1)c1c(n2CCCc2ccc(Cl)cc2)CC2CCC1N2C` (stereo not shown) [Compound 85], the inhibition at 1 µM in assay [1] was -2%; in assay [2] it was 52%; in assay [3] it was 92%; in assay [4], 43%.
On to `Cc1ccc2c(c1)c1c(n2CCc2cccnc2)CC2CCC1N2C` (stereo not shown) [Compound 86], for which the inhibition at 1 µM in assay [1] is 4%; in assay [2] it was 60%; in assay [3], 106%; in assay [4], 87%.
The corresponding values for `CN1C2CCC1c1c(n(CCc3cncc(Cl)c3)c3ccc(Cl)cc13)C2` (stereo not shown) [Compound 87] are -6%, 23%, 98% and 70%.
Take `Cc1ccc2c(c1)c1c(n2CCc2cncc(Cl)c2)CC2CCC1N2C` (stereo not shown) [Compound 88]: the inhibition at 1 µM in assay [1] stood at 4%; in assay [2], 25%; in assay [3], 104%; in assay [4], 73%.

For orientation: inhibition means the relative decrease from the control value, in per cent.

The values above are taken from patent US8546381B2, “Bridged heterocyclic compounds and methods of use” (Medivation Technologies, Inc., priority 2008, dated 2013).
